Reference: PubChem BioAssay AID1996
Converted amounts (≈) assume the structure as drawn.

conditions: buffer; pH 7.4; 200.0 µM

Q: Which solubility kinetic does the source give for `NC1=NC(=O)C(Cc2ccc(OC(F)(F)F)cc2)S1` (stereo not given) here?
A: > 43.5 µg/mL

Q: Which solubility kinetic does the source give for `Cc1ccccc1NC(=O)COc1ccc2c(c1)OC(C)(C)CC2=O` here?
A: < 0.7 µg/mL

Q: Which solubility kinetic does the source give for `CC(=O)c1sc(NC(=O)COc2ccccc2)nc1C` here?
A: 5.7 µg/mL (≈ 19.6 µM)

Q: Which solubility kinetic does the source give for `Cc1ccc(-c2nc(C(Cl)Cl)c3ccccc3n2)cc1` here?
A: < 0.3 µg/mL

Q: Which solubility kinetic does the source give for `CCN(CC)CCNC(=O)c1ccc(N)cc1.Cl` here?
A: > 40.8 µg/mL

Q: For `CCC(=O)c1ccc(OCC(=O)Nc2ccc(S(=O)(=O)Nc3cc(C)nc(C)n3)cc2)cc1`, which solubility kinetic is on record?
A: > 70.3 µg/mL

Q: Which solubility kinetic does the source give for `O=C(COC(=O)CNS(=O)(=O)c1cc(C(F)(F)F)ccc1Cl)NC1CC1` here?
A: > 62.2 µg/mL

Q: Which solubility kinetic does the source give for `Cc1ccc(Cl)c(OCC(=O)N2CCc3ccccc3C2)c1` here?
A: 6.2 µg/mL (≈ 19.6 µM)

Q: With `Cn1cnc([N+](=O)[O-])c1SCC(O)CCl` (stereo not given) as the molecule, how does the solubility kinetic read?
A: 36.5 µg/mL (≈ 145 µM)

Q: With `COC(=O)CC(c1ccc(C#N)cc1)n1c(C)ccc1C` (stereo not given) as the molecule, how does the solubility kinetic read?
A: > 42.4 µg/mL

Q: For `CN1CCC(N(C)C(=O)c2cc(-c3ccc(F)cc3)nc3ccccc23)CC1.Cl`, which solubility kinetic is on record?
A: > 62.1 µg/mL

Q: Which solubility kinetic does the source give for `O=C(COC(=O)c1ccccc1C(F)(F)F)NC(=O)NCc1ccco1` here?
A: 19.5 µg/mL (≈ 52.7 µM)

Q: Which solubility kinetic does the source give for `CCOC(=O)N1CCN(CCC(=O)Nc2ccccc2)CC1` here?
A: 32.2 µg/mL (≈ 105 µM)

Q: Which solubility kinetic does the source give for `Cc1cccnc1NC(=O)c1ccc2c(c1)NC(=O)C(C)S2` (stereo not given) here?
A: > 47 µg/mL

Q: Which solubility kinetic does the source give for `Cc1ccc(S(=O)(=O)NC(=O)Nc2cccc(C)n2)cc1` here?
A: > 45.8 µg/mL

Q: For `COc1cc2c(cc1OC)CN(C(=O)c1cccc([N+](=O)[O-])c1)CC2`, which solubility kinetic is on record?
A: 36 µg/mL (≈ 105 µM)

Q: For `CCCN1CCN(C(=O)c2ccc3nc(CC)c(CC)nc3c2)CC1`, which solubility kinetic is on record?
A: > 51.1 µg/mL

Q: Which solubility kinetic does the source give for `Cc1cc(C)nc(Sc2ncnc(N)c2[N+](=O)[O-])n1` here?
A: > 41.7 µg/mL

Q: For `COc1ccc(CNC(=O)c2ccncc2)cc1`, which solubility kinetic is on record?
A: > 36.3 µg/mL

Q: For `COc1ccc(/C=C/C(=O)O)cc1S(=O)(=O)N1CCc2ccccc21`, which solubility kinetic is on record?
A: > 53.9 µg/mL

Q: With `O=C(c1cc([N+](=O)[O-])ccc1N1CCCC1)N1CCCC1` as the molecule, how does the solubility kinetic read?
A: > 43.4 µg/mL

Q: Which solubility kinetic does the source give for `O=C(NCc1ccc2c(c1)OCO2)Nc1cccc(Cl)c1` here?
A: 1.3 µg/mL (≈ 4.27 µM)

Q: For `COc1ccc(CCC(=O)Nc2ccc3c(c2)OCO3)cc1`, which solubility kinetic is on record?
A: 7.3 µg/mL (≈ 24.4 µM)

Q: With `O=c1c2ccccc2nc(/C=C/c2ccccc2O)n1-c1ccccc1O` as the molecule, how does the solubility kinetic read?
A: 30.8 µg/mL (≈ 86.4 µM)

Q: For `CC(C(=O)N1CCN(c2ccccc2F)CC1)c1ccc([N+](=O)[O-])cc1` (stereo not given), which solubility kinetic is on record?
A: 38.8 µg/mL (≈ 109 µM)

Q: Which solubility kinetic does the source give for `COc1cc2c(cc1OC)C(NC(=O)c1ccc(C)cc1)CC2=O` (stereo not given) here?
A: 4.6 µg/mL (≈ 14.1 µM)

Q: Which solubility kinetic does the source give for `O=C(NCCOc1ccccc1)C1CCCCC1` here?
A: > 37.1 µg/mL

Q: For `NC(=O)CN1C(=O)C(=O)N(Cc2ccccc2)C1=O`, which solubility kinetic is on record?
A: 38.7 µg/mL (≈ 148 µM)

Q: Which solubility kinetic does the source give for `CCc1ccccc1NC(=S)N1CCCCCC1` here?
A: > 39.4 µg/mL

Q: Which solubility kinetic does the source give for `Cc1ccc(N2C(=O)C3CCC(C)(C2=O)C3(C)C)cc1` (stereo not given) here?
A: 26.7 µg/mL (≈ 98.4 µM)

Q: For `Cc1cc(Cl)ccc1C(=O)C1CCCN(C(=O)c2ccoc2)C1` (stereo not given), which solubility kinetic is on record?
A: 35.7 µg/mL (≈ 108 µM)

Q: Which solubility kinetic does the source give for `O=C1/C(=C/Nc2ccc3c(c2)OCO3)CCc2ccccc21` here?
A: 1.4 µg/mL (≈ 4.77 µM)

Q: With `CC(=O)N1Cc2[nH]c3ccccc3c2CC1C(=O)O` (stereo not given) as the molecule, how does the solubility kinetic read?
A: > 38.7 µg/mL

Q: With `Cc1ccccc1OCCn1cc(C(=O)O)c2ccccc21` as the molecule, how does the solubility kinetic read?
A: > 44.3 µg/mL

Q: With `CN(C)C(=S)Nc1nc2ccccc2s1` as the molecule, how does the solubility kinetic read?
A: 5.4 µg/mL (≈ 22.8 µM)

Q: For `COc1ccc(/C(N)=N/OC(=O)c2cccs2)cc1`, which solubility kinetic is on record?
A: 35.9 µg/mL (≈ 130 µM)

Q: Which solubility kinetic does the source give for `CCC(=O)NCCc1nc2cc(NC(=O)Nc3ccccc3)ccc2n1C` here?
A: > 54.8 µg/mL

Q: For `Nc1c(NCc2ccccc2)c(=O)c1=O`, which solubility kinetic is on record?
A: 5.9 µg/mL (≈ 29.2 µM)

Q: For `COc1ccc(C(=O)NCC(=O)N2CCCC(C)C2)cc1OC` (stereo not given), which solubility kinetic is on record?
A: > 48.1 µg/mL

Q: Which solubility kinetic does the source give for `CCOC(=O)NC(=O)CSc1nc2ccc([N+](=O)[O-])cc2[nH]1` here?
A: 22 µg/mL (≈ 67.8 µM)

Q: With `CC(=O)CC(=O)Nc1ccc(C(N)=O)cc1` as the molecule, how does the solubility kinetic read?
A: > 33 µg/mL

Q: Which solubility kinetic does the source give for `O=C(NC1CCSc2ccccc21)c1ccccc1Cl` (stereo not given) here?
A: 9.3 µg/mL (≈ 30.6 µM)

Q: For `Cc1cc2c(cc1S(=O)(=O)N1CCOCC1)NC(=O)CO2`, which solubility kinetic is on record?
A: > 46.9 µg/mL

Q: For `CCN1CCN(c2nnc(-c3ccccc3)c3ccccc23)CC1`, which solubility kinetic is on record?
A: > 47.8 µg/mL

Q: For `CCN(CC(=O)Nc1ccccc1OC)C(=O)CCc1ccccc1`, which solubility kinetic is on record?
A: 46 µg/mL (≈ 135 µM)

Q: Which solubility kinetic does the source give for `Cc1ccsc1C(=O)OCc1cc(=O)n2ccsc2n1` here?
A: 6.3 µg/mL (≈ 20.6 µM)

Q: Which solubility kinetic does the source give for `CCc1cccc2c(C(=O)CN3C(=O)NC4(CCCCC4)C3=O)c[nH]c12` here?
A: 7 µg/mL (≈ 19.8 µM)

Q: For `CN1C(=O)NC(=O)/C(=C/c2ccc([N+](=O)[O-])o2)C1=O`, which solubility kinetic is on record?
A: > 39.8 µg/mL

Q: Which solubility kinetic does the source give for `CC(C)(C)c1ccc(CN2C(=O)c3ccccc3S2(=O)=O)cc1` here?
A: 1.2 µg/mL (≈ 3.64 µM)

Q: With `CC(C(O)c1cc(=O)c(OCc2ccccc2)co1)[N+](=O)[O-]` (stereo not given) as the molecule, how does the solubility kinetic read?
A: 33.1 µg/mL (≈ 108 µM)

Q: For `O=C(NCCNC(=O)c1ccccn1)c1ccc(-c2ccccc2)cc1`, which solubility kinetic is on record?
A: 3.3 µg/mL (≈ 9.55 µM)

Q: With `C=C(C)CSc1nc2sc3c(c2c(=O)n1-c1ccc(C)cc1)CCN(C)C3` as the molecule, how does the solubility kinetic read?
A: 25.6 µg/mL (≈ 64.4 µM)

Q: With `CCN(C(=S)NCc1ccccc1)c1cccc2ccccc12` as the molecule, how does the solubility kinetic read?
A: 2.7 µg/mL (≈ 8.43 µM)

Q: Which solubility kinetic does the source give for `c1ccc(P(c2ccccn2)c2ccccn2)cc1` here?
A: > 39.6 µg/mL

Q: Which solubility kinetic does the source give for `O=C(Nc1cccc(C(=O)N2CCCc3ccccc32)c1)c1ccccc1` here?
A: 17.2 µg/mL (≈ 48.3 µM)

Q: With `COCCNS(=O)(=O)c1ccc(C)c(C)c1C` as the molecule, how does the solubility kinetic read?
A: 34.9 µg/mL (≈ 136 µM)

Q: With `CCN1C(=O)CSC1=Nc1ccc(C(=O)O)cc1` as the molecule, how does the solubility kinetic read?
A: 39 µg/mL (≈ 148 µM)

Q: With `O=c1[nH]cc(NCCc2ccccc2)c(=O)[nH]1` as the molecule, how does the solubility kinetic read?
A: > 34.7 µg/mL

Q: For `O=C(COc1ccc([N+](=O)[O-])cc1Cl)NCCN1C(=O)CSC1=O`, which solubility kinetic is on record?
A: > 56.1 µg/mL

Q: With `O=C(NC1=NCCS1)c1ccc(Cl)c(Cl)c1` as the molecule, how does the solubility kinetic read?
A: 0.9 µg/mL (≈ 3.27 µM)
